Read-outs that look alike come from different tables or passages of the source.
Assays:
rice stem borer = experiment: Insecticidal effect on rice stem borer, 3rd-instar larvae (rice seedling dip); format: in vivo, Chilo suppressalis; settings: after 72 hours, 25°C
Experimental: (§1) (A) A wettable powder prepared as described in Formulation Example 5 was diluted with water to a predetermined concentration. Rice seedlings were dipped into the dilute solution and placed in a 60 ml volume cup made of vinyl chloride resin, and 10 3rd-instar larvae of rice stem borer were put in each cup. The cups were capped and maintained at 25°C.
as §1, with “(B) A” for “(A) A”, “Example 7” for “Example 5”

tobacco cutworm [1] = experiment: Insecticidal effect on tobacco cutworm (cabbage leaf dip); format: in vivo, Prodenia litura; settings: after 48 hours, 25°C
Experimental: (§2) (A) An emulsifiable concentrate prepared as described in Formulation Example 1 was diluted with water to a predetermined concentration and then cabbage leaves were dipped into the dilute solution and dried in air and placed in a 60 ml volume cup made of vinyl chloride resin. 3rd-instar larvae of tobacco cutworm were put in each cup and maintained at 25°C. After 48 hours, percent mortality was assessed. The test was replicated 3 times for each compound using 30 insects in each test.
as §2, with “(B)” for “(A)”, “3” for “1”

diamond back moth = experiment: Insecticidal effect on diamond-back moth (cabbage leaf dip); format: in vivo, Plutella xylostella; settings: after 72 hours, 25°C
Experimental: (§3) (A) An emulsifiable concentrate prepared as described in Formulation Example 1 was diluted with water to a predetermined concentration and leaves of a cabbage were dipped into the dilute emulsion for 10 seconds followed by drying in air, and charged in a 60 ml volume cup made of vinyl chloride resin. Then, thirty 3rd-instar larvae of diamond back moth were put in each cup, and the cups were kept at 25°C. After 72 hours, percent mortality was assessed and the test was replicated 3 times for each treatment.
as §3, with “(B) An” for “(A) An”, “Example 4” for “Example 1”

carmine mites = experiment: Miticidal effect on carmine mite (sprayed kidney bean seedling); format: in vivo, Tetranychus cinnabarius; settings: 500 ppm
Experimental: An emulsifiable concentrate prepared as described in Formulation Example 1 and diluted to a predetermined concentration was sprayed using a spray-gun on a seedling of a kidney bean placed in a pot of 12 cm in diameter to which plant carmine mites were parasitic. After drying in air, seedlings were kept in a green house, and the number of living insects was recorded on the 7th, 14th, 21st and 28th day from the day of application to determine the control effects. Three pots were used for each treatment. The control effect was assessed by the following formula: [formula] • wherein Σ indicates sum and Cb, Tb, Cai and Tai have the following meanings. • Cb: Number of living mites in non-treated sample before application. • Tb: Number of living mites in treated sample before application. • Cai: Number of living mites in non-treated sample 7th, 14th, 21 st or 28th day from the application. • Tai: Number of living mites in treated sample 7th, 14th, 21st or 28th day from the application.

[2] = system: carmine mites resistant to Kelthane; experiment: Miticidal effect on carmine mite resistant to Kelthane (sprayed egg plant seedling); format: in vivo, Tetranychus cinnabarius; settings: Table 13, 500 ppm
Experimental: (§4) (A) An emulsifiable concentrate prepared as described in Formulation Example 1 and diluted to a predetermined concentration was sprayed using a spray-gun on a seedling of an egg plant placed in a pot of 12 cm in diametre to which plant carmine mites resistant to Kelthane were parasitic. After drying in air, seedlings were kept in a green house, and the number of living insects was recorded on the 7th, 14th, 21 st and 28th day from the day of application to determine the control effects. Three pots were used for each treatment. The control effect was assessed by the formula described in TEST EXAMPLE 7 above. Further, phytotoxicity was observed visually on the 7th day after the application.
as §4, with “(B) An” for “(A) An”, “Example 3” for “Example 1”, “in diameter” for “in diametre”, “in Test” for “in TEST”

Apple = experiment: Phytotoxicity on various crops; format: in vivo; parameters: key: Symbol — indicates that no toxicity was observed; settings: 500 ppm sprayed; checked visually after 10 days
Experimental: (§5) An emulsifiable concentrate prepared as described in Formulation Example 2 was diluted with water to a concentration of 500 ppm based on the effective ingredient and sprayed sufficiently using a spray-gun onto various test plants. The plants were kept in a green house. After 10 days from the application phytotoxicity was checked visually. The test was replicated 3 times for each compound.

Beet = experiment: Phytotoxicity on various crops; format: in vivo; parameters: key: Symbol — indicates that no toxicity was observed; settings: 500 ppm sprayed; checked visually after 10 days
Experimental: as §5

Cabbage = experiment: Phytotoxicity on various crops; format: in vivo; parameters: key: Symbol — indicates that no toxicity was observed; settings: 500 ppm sprayed; checked visually after 10 days
Experimental: as §5

Cotton = experiment: Phytotoxicity on various crops; format: in vivo; parameters: key: Symbol — indicates that no toxicity was observed; settings: 500 ppm sprayed; checked visually after 10 days
Experimental: as §5

Cucumber = experiment: Phytotoxicity on various crops; format: in vivo; parameters: key: Symbol — indicates that no toxicity was observed; settings: 500 ppm sprayed; checked visually after 10 days
Experimental: as §5

Green Pepper = experiment: Phytotoxicity on various crops; format: in vivo; parameters: key: Symbol — indicates that no toxicity was observed; settings: 500 ppm sprayed; checked visually after 10 days
Experimental: as §5

Kidney Bean = experiment: Phytotoxicity on various crops; format: in vivo; parameters: key: Symbol — indicates that no toxicity was observed; settings: 500 ppm sprayed; checked visually after 10 days
Experimental: as §5

Rice = experiment: Phytotoxicity on various crops; format: in vivo; parameters: key: Symbol — indicates that no toxicity was observed; settings: 500 ppm sprayed; checked visually after 10 days
Experimental: as §5

Tea = experiment: Phytotoxicity on various crops; format: in vivo; parameters: key: Symbol — indicates that no toxicity was observed; settings: 500 ppm sprayed; checked visually after 10 days
Experimental: as §5

Tomato = experiment: Phytotoxicity on various crops; format: in vivo; parameters: key: Symbol — indicates that no toxicity was observed; settings: 500 ppm sprayed; checked visually after 10 days
Experimental: as §5

egg plant = experiment: Phytotoxicity on various crops; format: in vivo; parameters: key: Symbol — indicates that no toxicity was observed; settings: 500 ppm sprayed; checked visually after 10 days
Experimental: as §5

apple leaf miner = experiment: Insecticidal effect on apple leaf miner (sprayed apple seedling); format: in vivo, Lithocolletis ringoniella; settings: for mortality at 500 ppm: Phyllonorycter ringoniella, 336 h
Experimental: (§6) (A) A dilute water suspension of a wettable powder prepared as described in Formulation Example 5 was sufficiently sprayed using a spray-gun on a seedling of an apple tree planted in a bisque flower pot to which plant larvae of apple leaf miner just after hatching were parasitic. Thereafter the pots were placed in a green house. Fourteen days after the spraying, bores made by larvae were broken and percent mortality was assessed for all the leaves of each seedling. Three pots were used for each treatment.
as §6, with “(B)” for “(A)”, “7” for “5”

tobacco cutworm [3] = experiment: Long-lasting insecticidal effect on tobacco cutworm (sprayed cabbage plantlet); format: in vivo, Prodenia litura; settings: concentration 500 (unit not given), mortality after 48 hours; for Percent Mortality After Application 3rd Day: leaves cut on 3rd day
Experimental: (§7) (A) An emulsifiable concentrate prepared as described in Formulation Example 2 was diluted with water to a predetermined concentration and sprayed onto a cabbage plantlet in a flower pot of 15 cm in diameter using a spray-gun sufficiently and the tests plants were placed in a green house. The leaves of the plants were cut off on the 3rd, 5th, 7th, 10th and 15th day and placed in a 60 ml volume cup and 3rd-instar larvae of tobacco cutworm were put in each cup. The cups were kept in an incubator (25°C). After 48 hours, percent mortality was assessed. The tests was replicated 3 times for each compound using 30 insects in each test.
as §7, with “(B) An” for “(A) An”, “Example 3” for “Example 2”, “and 1 5th” for “and 15th”

[4] = Table 7, 100 ppm, emulsifiable concentrate as Formulation Example 1
[5] = egg plant seedling, Formulation Example 1
[6] = Table 4, 100 ppm, emulsifiable concentrate as Formulation Example 3
[7] = Table 8, 100 ppm, emulsifiable concentrate as Formulation Example 4

CCCCSP(=O)(OCC)Oc1ccc2c(c1)OC(C)=CC2(C)C (stereo not drawn) [Compound No. 5]
Percent Mortality (%) (rice stem borer; Table 1, 500 ppm, wettable powder as Formulation Example 5): 100%
Percent Mortality (%) (tobacco cutworm [1]; Table 3, 500 ppm, emulsifiable concentrate as Formulation Example 1): 100%
Percent Mortality (%) (diamond back moth; [4]): 100%
Control Effect (%) (carmine mites): 91.2%
Number of Living Mites after Application 7th Day (carmine mites): 0
Number of Living Mites after Application 14th Day (carmine mites): 0
Number of Living Mites after Application 21st Day (carmine mites): 16
Number of Living Mites after Application 28th Day (carmine mites): 38
Number of Living Mites after Application 7th Day [2, 5]: 0
Number of Living Mites after Application 14th Day [2, 5]: 0
Number of Living Mites after Application 21st Day [2, 5]: 9
Number of Living Mites after Application 28th Day [2, 5]: 29
Control Effect (%) ([2]; from mite counts on 7th, 14th, 21st and 28th day): 97.4%
Phytotoxicity: Apple (Apple): —
Phytotoxicity: Beet (Beet): —
Phytotoxicity: Cabbage (Cabbage): —
Phytotoxicity: Cotton (Cotton): —
Phytotoxicity: Cucumber (Cucumber): —
Phytotoxicity: Green Pepper (Green Pepper): —
Phytotoxicity: Kidney Bean (Kidney Bean): —
Phytotoxicity: Rice (Rice): —
Phytotoxicity: Tea (Tea): —
Phytotoxicity: Tomato (Tomato): —
Phytotoxicity: Egg Plant (egg plant): —

CCCSP(=S)(OCC)Oc1cccc2c1C(C)=CC(C)(C)O2 (stereo not drawn) [Compound No. 26]
Percent Mortality (%) (rice stem borer; Table 2, 100 ppm, wettable powder as Formulation Example 7): 100%
Percent Mortality (%) (tobacco cutworm [1]; [6]): 100%
Percent Mortality (%) (diamond back moth; [7]): 96.7%
Phytotoxicity: Apple (Apple): —
Phytotoxicity: Beet (Beet): —
Phytotoxicity: Cabbage (Cabbage): —
Phytotoxicity: Cotton (Cotton): —
Phytotoxicity: Cucumber (Cucumber): —
Phytotoxicity: Green Pepper (Green Pepper): —
Phytotoxicity: Kidney Bean (Kidney Bean): —
Phytotoxicity: Rice (Rice): —
Phytotoxicity: Tea (Tea): —
Phytotoxicity: Tomato (Tomato): —
Phytotoxicity: Egg Plant (egg plant): —

COP(=O)(OC)OC=C(Cl)Cl [DDVP, dimethyl 2,2-dichlorovinyl dimethyl phosphate, reference compound]
Percent Mortality (%) (tobacco cutworm [1]; [6]): 46.7%
Percent Mortality (%) (diamond back moth; [4]): 23.3%
Percent Mortality (%) (diamond back moth; Table 7, 500 ppm): 76.7%
Percent Mortality (%) (diamond back moth; [7]): 6.7%
Percent Mortality (%) (diamond back moth; Table 8, 500 ppm): 83.3%

CCOP(=S)(OCC)Oc1nc(Cl)c(Cl)cc1Cl [Dursban, 0,0-diethyl 0-(3,5,6-trichloro-2-pyridyl)phosphorothioate, reference compound]
mortality at 500 ppm (apple leaf miner; read-out: Percent Morality (%)): 29.4%

CCOC(=O)C(SP(=S)(OC)OC)c1ccccc1 (stereo not drawn) [Elsan, S-(α-ethoxy-carbonyl benzyl O,O-dimethyl phosphorodithioate, reference compound]
Percent Morality (%) (apple leaf miner; Table 10, 500 ppm, fourteen days after spraying, wettable powder as Formulation Example 5, 20160 min): 13.2%

COP1(=S)OCc2ccccc2O1 (stereo not drawn) [Salithion, 2-methoxy-4H-benzo-1,3,2-dioxaphosphorin 2-sulphide, reference compound]
Percent Mortality After Application 3rd Day (tobacco cutworm [3]; Table 5): 20%
Percent Mortality After Application 5th Day (tobacco cutworm [3]; Table 5, leaves cut on 5th day): 0%
Percent Mortality After Application 7th Day (tobacco cutworm [3]; Table 5, leaves cut on 7th day): 0%
Percent Mortality After Application 10th Day (tobacco cutworm [3]; Table 5, leaves cut on 10th day): 0%
Percent Mortality After Application 15th Day (tobacco cutworm [3]; Table 5, leaves cut on 15th day): 0%
Percent Mortality After Application 3rd Day (tobacco cutworm [3]; Table 6): 0%
Percent Mortality After Application Immediately after Application (tobacco cutworm [3]; Table 6): 100%
mortality at 500 ppm (apple leaf miner; Table 10, 500 ppm, fourteen days after spraying, wettable powder as Formulation Example 5, read-out: Percent Morality (%)): 95%

COc1nn(CSP(=S)(OC)OC)c(=O)s1 [Supracide, O,O-dimethyl-S-[5-methoxy-1,3,4-thiadiazol-2(3H)-onyl(3)-methyl]dithiophosphate, reference compound]
mortality at 500 ppm (apple leaf miner; Table 11, 500 ppm, fourteen days after spraying, wettable powder as Formulation Example 7, read-out: Percent Mortality (%)): 72%

Source: patent EP0054589B1, “Organic phosphoric acid ester derivatives, a process for preparing the same and insecticidal, miticidal or nematocidal compositions containing the same” (priority 1980, dated 1982)
